Laboratory results: patent US9604973B2, “Anti-cancer polyketide compounds” (priority 2012, dated 2017)

Tests used:
[1] = system: DNAJB1; assay: RT-PCR of spliced and unspliced mRNA (intron retention) in CLL cells; assay type: cell-based, human; details: 4 hours, FD-895, PLAD 10, 100 nM, bendamustine 33, 100 μM, F-Ara-A 3, 10, 33 μM
Experimental: FIG. 23: FD-895 and PLAD induced inhibition of splicing in CLL: RT-PCR for analysis of spliced and unspliced mRNAs. CLL cells treated with FD-895, PLAD (10, 100 nM), chemotherapeutic agent like bendamustine (33, 100 μM) and F-Ara-A (3, 10, 33 μM) for 4 hours. RT-PCR for DNAJB1 was performed with primers spanning two exons; products were analyzed on ethidium bromide-stained agarose gels (2%) to visualize the correct size of the unspliced mRNAs. […] The exon structure of DNAJB1 gene is indicated. G, human genomic DNA was used as a control; U, unspliced mRNA; S, spliced mRNA.
CLL cells were treated with 10 and 100 nM of FD-895 and PLAD, 33 and 100 μM of bendamustine and 3, 10, and 33 μM of F-Ara-A for 4 h. Normal B and CLL cells were treated with 100 nM of FD-895 and PLAD and 10 μM of F-Ara-A for 15 minutes, 30 minutes, 1, 2 and 4 h. Total RNA was extracted using mirVana™ miRNA isolation kit (Ambion Life Technology, USA). After DNase treatment, 200 ng total RNA was reverse-transcribed using a SuperScript™ III first-strand synthesis system (Invitrogen). PCR was performed on 10 ng of the obtained cDNA (or human genomic DNA as a control) in 25 μl of reaction mixture containing Plantinum® PCR SuperMix High-fidelity (Invitrogen Life Technology, USA), and 0.1 μM of each primer of the appropriate pair.
PCR conditions were 94° C. for 3 min; 35 cycles of 94° C. for 30 s, 60° C. for 30 s, and 72° C. for 1 min; followed by 72° C. for 5 min. PCR products were separated on a 2% agarose gel and stained with ethidium bromide.

[2] = system: JURKAT; assay: Flow cytometry cell viability/% SIA in leukemia cell line; assay type: cell-based, human; details: 0-10,000 nM, 48 hours
Experimental: (§1) FIG. 22: Activity of FD-895, PLAD and F-Ara-A in different human leukemia cell lines: Different leukemia cell lines including MEC1, RAJI and JURKAT were incubated with FD-895, PLAD and F-Ara-A (0, 10, 100, 1000, 10,000 nM) for 48 hours. The samples were harvested and cell viability was measured by flow cytometry using propidium iodine (PI) exclusion and mitochondrial membrane potential changes using DiOC6. This experiments was performed 2 times independently.
(§2) The leukemia cell lines, MEC1, RAJI and JURKAT were maintained in CLL B cells were maintained in RPMI 1640 medium supplemented with 10% FBS, 2 mM L-glutamine, and 100 U/mL of penicillin and 100 μg/mL of streptomycin at 37° C. in an atmosphere of 5% CO2.
(§3) Apoptotic and viable cells were discriminated via flow cytometry of cells stained with 3,3′ dihexyloxacarbocyanine iodide (DiOC6) (Molecular Probes, Eugene, Oreg., USA) and propidium iodine (Sigma, St Louis, Mo., USA), as described.^3 Using this method viable cells exclude PI and stain brightly positive for DiOC6.
(§4) We further examined the activity of FD-895, PLAD and F-Ara-A in different leukemia cell lines like MEC1 (B chronic lymphocytic leukemia cell line), RAJI (B lymphocyte cell line), JURKAT (T lymphocyte cell line) as to know whether these compounds induce apoptosis or not. We incubated cells with FD-895, PLAD and F-Ara-A with 0, 10, 100, 1000 or 10,000 nM for 48 hours and measured the % SIA by using flow cytometry.

[3] = system: RAJI; assay: as above; assay type: cell-based, human; details: 0-10,000 nM, 48 hours
Experimental: as §1, §2, §3, §4

[4] = system: MEC1; assay: as above; assay type: cell-based, human; details: MEC1, 0-10,000 nM, 48 hours
Experimental: as §1, §2, §3, §4

[5] = system: DNAJB1; assay: Quantitative RT-PCR of unspliced mRNA in CLL cells; assay type: cell-based, human; details: for unspliced mRNA of DNAJB1 over time: CLL cells, FD-895, PLAD 100 nM, F-Ara-A 10 μM, 15 min, 1 and 4 hours; for unspliced mRNA of DNAJB1: CLL, 10 nM, 4 hours
Experimental: FIG. 24: Time-dependent increase of unspliced mRNA by FD-895 and PLAD in CLL: CLL cells were treated with 100 nM of FD-895 and PLAD and 10 μM of F-Ara-A for 15 min, 1 and 4 hours. Quantitative RT-PCR using primers specific for each intron quantified unspliced mRNA for DNAJB1. GAPDH was used for normalization. […] Error bars indicate S.D.
Quantitative RT-PCR using primers specific for each intron quantified unspliced mRNA for DNAJB1 (FIG. 25A) and RIOK3 (FIG. 25B). GAPDH was used for normalization. […] Error bars indicate S.D.
CLL cells were treated with 100 nM of FD-895 and PLAD and 10 μM of F-Ara-A for 15 minutes, 1 and 4 h. Normal B and CLL cells were treated with 10, 100, and 1000 nM of FD-895 and PLAD and 10 μM of F-Ara-A for 4 h.
Extraction of total RNA and cDNA synthesis were performed as described earlier. Unspliced mRNA was quantified using a 7900HT fast Real Time PCR System (Applied Biosystems). The amounts of unspliced mRNA of DNAJB1, and RIOK3 were determined by SYBR green (Power SYBR Green PCR Master Mix, Applied Biosystems) real-time quantitative RT-PCR using specific primers designed for the intron of each gene (see additional information section at the end).
PCR using 0.2 μM of each primer was performed on 20 ng of the obtained cDNA. PCR conditions were 50° C. for 2 min; 95° C. for 10 min; 35 cycles of 94° C. for 20 s, 55° C. for 20 s, followed by 72° C. for 30 s. The mRNA levels were calculated using 2^−ΔΔCT method.^4 GAPDH was used as a control for normalization.

[6] = system: HCT-116 cell line; assay: MTT cell proliferation assay; assay type: cell-based
Text: Structure Activity Relationships (SAR) studies for 1SS, […], 1RS, and […]. It has been reported that ablation of C3, C6 and C7 substituents is detrimental to activity. […] (See FIG. 4). Additional activity was also observed when C17 was left in its natural R configuration.

Compound | intron retention/splicing inhibition of DNAJB1 [1] | cell death (% SIA) [2] | cell death (% SIA) [3] | cell death (% SIA) [4] | unspliced mRNA of DNAJB1 over time [5] | unspliced mRNA of DNAJB1 [5] | IC50 ([6]; HCT-116 cell line, MTT) [nM] | IC50 ([6]; HCT-116 cell line, MTT, listed as 1RR) [nM] | IC50 ([6]; background statement, cell line not given) [nM]
CCC(OC)C(C)C1OC1C(O)C(C)/C=C/C=C(\C)C1OC(=O)CC(O)CCC(C)(O)C(OC(C)=O)/C=C/C1C (stereo not drawn) [FD-895] | showed intron retention at low concentration | high significant cell death | high significant cell death | did not show significant apoptosis | gradual increase in unspliced mRNA | clear increase in unspliced mRNA | 23.5 ± 0.2 | 24.2 ± 0.9 | 24.2 ± 0.9
Pladienolide B | showed intron retention at low concentration | high significant cell death | high significant cell death | did not show significant apoptosis | gradual increase in unspliced mRNA | clear increase in unspliced mRNA |  |  | 
